# Tests used:
# [1] = system: Nile tilapia (Oreochromis niloticus) exposed to 5 ppm CdCl2.H2O; experiment: Cadmium concentration in tissues by atomic absorption spectrophotometer after 21 days exposure; assay type: in vivo; conditions: fish exposed to Cd only (5 ppm), control 205.4804±62.9 ng/g
# Procedure: (§1) Experimental design was as follows. Adult Nile tilapia, Oreochromis niloticus (n=120 fish), with an average length of 20±4 cm and weight of 150 g-200 g were procured from the local fish farm near Riyadh City. They were checked thoroughly for injury and disease conditions. After washing with 0.01% KMnO4 solution for 15 min, they were divided into five groups each comprising 20 fish and kept in glass tanks (100 L capacity) with non-chlorinated tap water. Prior to the start of the experiment, the fish were acclimated to the food and laboratory conditions with 12 hr dark and 12 hr light cycles, pH range of 6 to 8 and temperature ranging from 20° C. to 24° C. for 15 days. The exposure period was 21 days. Through the entire experimental period the fish were fed commercial pelleted diet at 2% body weight.
# (§2) The experimental groups were in replicates as follows. Group I was the negative control which contained dechlorinated tap water with no added CdCl2.H2O and without any antioxidant treatment (designated “Control” in FIGS. 9-10). […]
# Cadmium concentration in tissues was determined as follows. […] The concentration of Cd in digested tissue samples were analyzed in an atomic absorption spectrophotometer.
# Cadmium accumulation in liver was assessed as follows. […]
# [2] = system: HSP70; experiment: HSP70 levels in gills (ELISA kit) after 21 days exposure; assay type: in vivo, Oreochromis niloticus; conditions: fish exposed to Cd only (5 ppm), control 152.8800±11.81554 pg/g
# Procedure: as §1, §2
# Biochemical analysis was performed as follows. A quantitation of MDA levels in the liver (lipid peroxides) was done by a high performance liquid chromatographic (HPLC) method. […] The levels of hepatic metalothionein levels (MT-2) and HSP70 in […] were also assessed using commercial ELISA kits.
# Heat shock protein (HSP70) in gills was determined as follows. […]
smiles,measurement,setting,value
"O.[Cd+2].[Cl-].[Cl-] [Cd, CdCl2.H2O]",Cd concentration in the liver,[1],1113.3320 ± 48.39 ng/g
same,HSP70 concentration in gills,[2],251.6600 ± 19.36 pg/g

# — US9622984B1, “Synthesis of naringenin nanoparticles” (priority 2016, dated 2017)
